The record followed here is PMC12430443, “Discovery of Novel Benzamide-Based Sigma-1 Receptor Agonists with Enhanced Selectivity and Safety” (Molecules, 2025).

SMILES strings stand for the structures.

Series [1] concerns the target BCRP (Homo sapiens, UniProt Q9UNQ0). The experiment in a line: Transporter inhibition in overexpressing cell lines. The note with it: ABC family, n = 2, read-out: Drug transport inhibition BCRP. The series is classed as in vitro ADME. As to the method:
(§1) Microsomal stability was evaluated using human liver microsomes at 10 µM (Table 3). […] Since cytochrome P450 (CYP) enzymes—especially families 1 to 3—play major roles in drug metabolism, CYP inhibition was tested against the human isoforms CYP1A, 2B6, 2C8, 2C9, 2C19, 2D6, and 3A, as recommended by FDA and EMA guidelines. […] Membrane transport proteins, including the ATP-binding cassette (ABC) and solute carrier (SLC) families, affect drug pharmacokinetics and potential drug–drug interactions. The inhibitory effects of compounds 2 and 6 were assessed against five ABC transporters (P-gp, BCRP, MRP1, MRP2, and MRP3) and seven SLC transporters (OAT1, OAT3, OATP1B1, OCT1, OCT2, ASBT, and NTCP).
(§2) Standardized in vitro ADME experiments were performed by Eurofins Cerep (Poitiers, France). Solubility assays were performed in PBS at pH 7.4, but also in simulated gastric fluid (SGF) and intestinal fluid (SIF), through the classical shake-flask method described by Lipinski et al., using HPLC-UV/VIS technology. The results were expressed in µM. The compound was classically evaluated at 10 µM for all of the ADME analyses. Bidirectional permeability (apical A to basolateral B pH 6.5/7.4, and basolateral B to apical A pH 7.4/6.5) was assessed in the epithelial colorectal adenocarcinoma cell line (Caco-2 cell line). The results were expressed as ×10^−6 cm/s (Papp) and as % recovery. The efflux ratio, i.e., Papp (B→A)/Papp(A→B), was calculated. Plasma protein binding was analyzed by HPLC-MS/MS after 4 h of incubation at 37 °C, as described by Banker et al.. Concentration was evaluated by LC/MS-MS. CYP inhibition was performed in human liver microsomes as described in [28]. Analysis of the respective metabolites was performed by HPLC-MS/MS. Transporter inhibition analysis was also performed in overexpressing cell lines. Respective metabolites for each specific transporter substrate were analyzed by fluorometry or scintillation counting, and % inhibition of control values were calculated. P-glycoprotein transporter substrate assessment was performed by bidirectional permeability analysis (apical A to basolateral B pH 7.4/7.4, and basolateral B to apical A pH 7.4/7.4) in the Caco-2 cell line with and without verapamil, as described in [26]. The results were expressed as ×10^−6 cm/s (Papp) and as % recovery. The efflux ratio was calculated as Papp(B→A)/Papp(A→B). CYP450 induction was assessed in human hepatocytes by measuring the mRNA levels of seven CYP isoforms via qPCR, as described in [40]. The compound was tested at 1, 10, and 100 μM, and fold-induction values were compared with predefined cut-off thresholds for each isoform and hepatocyte lot.

In series [2] the target is P-gp (Homo sapiens, UniProt P08183). The series is described as above. The series is classed as in vitro ADME. The note with it: ABC family, n = 2, read-out: Drug transport inhibition P-gp. As to the method: as §1, §2
The target of series [3] is MRP1 (Homo sapiens, UniProt P33527). The series is described as above. The series is classed as in vitro ADME. The following applies: ABC family, n = 2, read-out: Drug transport inhibition MRP1. As to the method: as §1, §2
For series [4], the target named is MRP2 (Homo sapiens, UniProt Q92887). The series is described as above. The note with it: ABC family, n = 2, read-out: Drug transport inhibition MRP2. The class given is in vitro ADME. As to the method:
as §1, §2

The target in series [5] is OCT2 (Homo sapiens, UniProt O15244). Described as above. The series is classed as in vitro ADME. The following applies: SLC family, n = 2, read-out: Drug transport inhibition OCT2. As to the method: as §1, §2
Series [6] concerns the target NTCP (Homo sapiens, UniProt Q14973). Described as above. The class given is in vitro ADME. The note with it: SLC family, n = 2, read-out: Drug transport inhibition NTCP. As to the method: as §1, §2
Series [7] is described as follows: Bidirectional permeability in Caco-2 cells. The class given is in vitro ADME. The following applies: human; for Papp A→B at 10 µM / Papp B→A at 10 µM: pH 7.4, 10 µM; for Papp A→B at 10 µM: n = 2, read-out: Permeability A/B pH7.4/7.4; for Papp B→A at 10 µM: n = 2, read-out: Permeability B/A pH7.4/7.4; for efflux ratio at 10 µM: read-out: e-ratio. As to the method: (§3) Solubility and stability remained unchanged in simulated gastric fluid (SGF) and simulated intestinal fluid (SIF), which mimic gastrointestinal digestion. Intestinal permeability was assessed using a two-chamber system with apical (A, pH 6.5) and basolateral (B, pH 7.4) compartments, representing the luminal and blood/mesenteric lymph sides of the gastrointestinal tract, respectively. […] The efflux ratios for both compounds ranged between 1 and 2, indicating improved permeability relative to the reference compound 1.
as §2

Series [8] is described as follows: Plasma stability in mouse plasma. The series is classed as in vitro ADME. The note with it: male CD-1 mouse plasma, 37 °C, read-out: Mouse plasma t1/2 (converted). As to the method: as §3
Plasma stability was evaluated by M2SV (Lille, France) in duplicate. Male CD-1 mouse plasma (lithium-heparinized; Sera Laboratories International Ltd. BioIVT, West Sussex, UK) was pre-incubated for 10 min at 37 °C before addition of the test compound (final concentration 10 μM, 0.1% DMSO). At 0, 60, 1440, and 2880 min, aliquots were transferred to chilled tubes containing acetonitrile and propranolol (1 μM) as internal standard.

The target in series [9] is D4.4 (Homo sapiens, UniProt P21917). The experiment in a line: Off-target panel of recombinant human receptors. The series is classed as cell-based. The following applies: 10 µM, duplicate; % inhibition of reference agonist activity. As to the method:
Among the synthesized compounds, four derivatives were selected based on their affinity and selectivity profiles. […] The remaining compounds (2, 3, 6, and 7) were assessed for their agonist and antagonist activities across a panel of 58 receptors relevant to CNS disorders, including serotonin, adenosine, adrenergic, cannabinoid, dopamine, histamine, and muscarinic receptors. These assays were conducted at a concentration of 10 µM, in duplicate, utilizing aequorin [19], cAMP HTRF™ [20], and GTPγS binding assays, as detailed in Table 2. […] Specifically, compound 6 antagonized four receptors (5-HT2A, 5-HT2C, α1a, H1), while compound 7 was active against five receptors (5-HT2A, 5-HT3, α1a, H1, M1).
Agonist and antagonist activities of the test compound are expressed as the percentage of the activity of the reference agonist at its EC100 concentration or the percentage of inhibition of the reference agonist activity at its EC80 concentration, respectively.

Chain of NTCP (Q14973 whole entry): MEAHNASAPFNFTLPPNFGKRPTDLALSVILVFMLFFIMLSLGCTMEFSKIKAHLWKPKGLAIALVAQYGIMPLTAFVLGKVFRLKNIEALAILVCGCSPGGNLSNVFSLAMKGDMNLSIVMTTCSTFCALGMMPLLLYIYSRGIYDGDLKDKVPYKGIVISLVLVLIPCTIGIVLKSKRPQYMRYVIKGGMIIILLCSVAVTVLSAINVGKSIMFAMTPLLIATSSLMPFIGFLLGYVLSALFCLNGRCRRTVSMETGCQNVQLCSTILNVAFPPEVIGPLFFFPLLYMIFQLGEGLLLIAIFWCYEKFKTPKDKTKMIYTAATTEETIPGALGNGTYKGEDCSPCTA
Chain of MRP1 (P33527 whole entry): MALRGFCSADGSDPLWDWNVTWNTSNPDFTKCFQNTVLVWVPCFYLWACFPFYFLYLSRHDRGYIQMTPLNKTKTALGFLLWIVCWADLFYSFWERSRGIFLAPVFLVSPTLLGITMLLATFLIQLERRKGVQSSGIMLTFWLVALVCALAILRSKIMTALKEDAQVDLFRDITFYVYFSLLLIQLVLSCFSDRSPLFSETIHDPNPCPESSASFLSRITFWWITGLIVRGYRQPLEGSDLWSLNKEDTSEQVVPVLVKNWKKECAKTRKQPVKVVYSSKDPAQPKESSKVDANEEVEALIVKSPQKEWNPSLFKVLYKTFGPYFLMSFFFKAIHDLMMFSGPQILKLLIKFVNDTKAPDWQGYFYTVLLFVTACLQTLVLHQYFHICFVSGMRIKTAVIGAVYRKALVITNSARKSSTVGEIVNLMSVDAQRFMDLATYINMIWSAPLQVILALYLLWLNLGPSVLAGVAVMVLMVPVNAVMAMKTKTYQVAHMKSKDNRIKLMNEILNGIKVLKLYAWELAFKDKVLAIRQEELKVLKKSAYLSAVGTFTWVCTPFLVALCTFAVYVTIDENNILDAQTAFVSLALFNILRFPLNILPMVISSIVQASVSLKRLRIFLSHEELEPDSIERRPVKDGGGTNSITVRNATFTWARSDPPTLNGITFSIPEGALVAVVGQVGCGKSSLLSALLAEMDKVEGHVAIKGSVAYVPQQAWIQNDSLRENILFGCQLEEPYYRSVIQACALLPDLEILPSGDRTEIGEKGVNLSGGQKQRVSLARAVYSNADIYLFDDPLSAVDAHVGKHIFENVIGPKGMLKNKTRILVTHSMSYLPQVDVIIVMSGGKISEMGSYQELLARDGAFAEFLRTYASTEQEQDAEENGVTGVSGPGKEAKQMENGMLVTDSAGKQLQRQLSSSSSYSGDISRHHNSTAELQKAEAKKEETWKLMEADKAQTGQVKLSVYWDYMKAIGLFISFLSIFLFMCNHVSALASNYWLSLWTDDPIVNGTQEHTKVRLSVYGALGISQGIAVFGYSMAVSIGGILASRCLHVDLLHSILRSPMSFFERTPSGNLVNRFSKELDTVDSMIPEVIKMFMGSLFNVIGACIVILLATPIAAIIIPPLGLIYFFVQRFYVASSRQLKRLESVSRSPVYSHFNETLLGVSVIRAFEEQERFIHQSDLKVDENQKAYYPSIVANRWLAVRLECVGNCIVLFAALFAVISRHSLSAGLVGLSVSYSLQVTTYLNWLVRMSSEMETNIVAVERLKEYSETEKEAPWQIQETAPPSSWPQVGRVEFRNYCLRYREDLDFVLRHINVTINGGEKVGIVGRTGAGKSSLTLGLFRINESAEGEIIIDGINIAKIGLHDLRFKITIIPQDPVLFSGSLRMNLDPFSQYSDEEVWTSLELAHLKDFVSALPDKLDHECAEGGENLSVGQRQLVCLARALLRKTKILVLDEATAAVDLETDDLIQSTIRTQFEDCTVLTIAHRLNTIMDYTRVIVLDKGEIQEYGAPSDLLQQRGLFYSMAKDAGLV
Chain of BCRP (Q9UNQ0 whole entry, canonical isoform): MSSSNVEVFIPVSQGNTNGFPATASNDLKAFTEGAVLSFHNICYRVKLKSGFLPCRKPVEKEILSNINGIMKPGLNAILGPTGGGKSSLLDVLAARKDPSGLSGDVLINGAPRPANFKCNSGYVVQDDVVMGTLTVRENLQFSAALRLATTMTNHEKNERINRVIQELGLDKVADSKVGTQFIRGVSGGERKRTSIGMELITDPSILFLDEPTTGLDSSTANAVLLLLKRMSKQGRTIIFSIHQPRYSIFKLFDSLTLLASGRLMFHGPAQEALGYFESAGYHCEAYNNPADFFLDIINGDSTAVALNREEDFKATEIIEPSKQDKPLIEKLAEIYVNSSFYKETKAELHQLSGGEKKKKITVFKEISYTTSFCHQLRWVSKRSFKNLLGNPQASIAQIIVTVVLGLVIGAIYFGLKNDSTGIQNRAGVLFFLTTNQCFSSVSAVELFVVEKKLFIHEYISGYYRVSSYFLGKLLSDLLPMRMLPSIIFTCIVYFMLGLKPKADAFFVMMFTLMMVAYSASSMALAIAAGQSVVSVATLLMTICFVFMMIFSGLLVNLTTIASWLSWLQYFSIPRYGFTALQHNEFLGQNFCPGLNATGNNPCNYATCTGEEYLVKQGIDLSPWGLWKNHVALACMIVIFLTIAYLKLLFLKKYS
Chain of OCT2 (O15244 whole entry): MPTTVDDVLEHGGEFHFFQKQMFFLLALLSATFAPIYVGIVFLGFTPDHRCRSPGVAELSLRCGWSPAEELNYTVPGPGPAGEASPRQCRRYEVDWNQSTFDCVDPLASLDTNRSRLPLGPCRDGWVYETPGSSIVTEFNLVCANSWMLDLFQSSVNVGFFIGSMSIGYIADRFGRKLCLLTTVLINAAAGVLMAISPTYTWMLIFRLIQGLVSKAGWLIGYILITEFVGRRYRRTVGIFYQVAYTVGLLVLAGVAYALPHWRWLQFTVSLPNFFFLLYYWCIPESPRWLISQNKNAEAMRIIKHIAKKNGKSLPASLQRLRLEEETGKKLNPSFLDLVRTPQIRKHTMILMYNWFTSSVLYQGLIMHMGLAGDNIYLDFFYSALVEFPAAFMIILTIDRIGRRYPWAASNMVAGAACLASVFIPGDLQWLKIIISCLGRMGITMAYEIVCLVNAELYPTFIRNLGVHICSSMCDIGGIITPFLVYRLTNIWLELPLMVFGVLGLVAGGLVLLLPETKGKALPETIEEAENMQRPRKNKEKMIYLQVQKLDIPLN
Chain of P-gp (P08183 whole entry): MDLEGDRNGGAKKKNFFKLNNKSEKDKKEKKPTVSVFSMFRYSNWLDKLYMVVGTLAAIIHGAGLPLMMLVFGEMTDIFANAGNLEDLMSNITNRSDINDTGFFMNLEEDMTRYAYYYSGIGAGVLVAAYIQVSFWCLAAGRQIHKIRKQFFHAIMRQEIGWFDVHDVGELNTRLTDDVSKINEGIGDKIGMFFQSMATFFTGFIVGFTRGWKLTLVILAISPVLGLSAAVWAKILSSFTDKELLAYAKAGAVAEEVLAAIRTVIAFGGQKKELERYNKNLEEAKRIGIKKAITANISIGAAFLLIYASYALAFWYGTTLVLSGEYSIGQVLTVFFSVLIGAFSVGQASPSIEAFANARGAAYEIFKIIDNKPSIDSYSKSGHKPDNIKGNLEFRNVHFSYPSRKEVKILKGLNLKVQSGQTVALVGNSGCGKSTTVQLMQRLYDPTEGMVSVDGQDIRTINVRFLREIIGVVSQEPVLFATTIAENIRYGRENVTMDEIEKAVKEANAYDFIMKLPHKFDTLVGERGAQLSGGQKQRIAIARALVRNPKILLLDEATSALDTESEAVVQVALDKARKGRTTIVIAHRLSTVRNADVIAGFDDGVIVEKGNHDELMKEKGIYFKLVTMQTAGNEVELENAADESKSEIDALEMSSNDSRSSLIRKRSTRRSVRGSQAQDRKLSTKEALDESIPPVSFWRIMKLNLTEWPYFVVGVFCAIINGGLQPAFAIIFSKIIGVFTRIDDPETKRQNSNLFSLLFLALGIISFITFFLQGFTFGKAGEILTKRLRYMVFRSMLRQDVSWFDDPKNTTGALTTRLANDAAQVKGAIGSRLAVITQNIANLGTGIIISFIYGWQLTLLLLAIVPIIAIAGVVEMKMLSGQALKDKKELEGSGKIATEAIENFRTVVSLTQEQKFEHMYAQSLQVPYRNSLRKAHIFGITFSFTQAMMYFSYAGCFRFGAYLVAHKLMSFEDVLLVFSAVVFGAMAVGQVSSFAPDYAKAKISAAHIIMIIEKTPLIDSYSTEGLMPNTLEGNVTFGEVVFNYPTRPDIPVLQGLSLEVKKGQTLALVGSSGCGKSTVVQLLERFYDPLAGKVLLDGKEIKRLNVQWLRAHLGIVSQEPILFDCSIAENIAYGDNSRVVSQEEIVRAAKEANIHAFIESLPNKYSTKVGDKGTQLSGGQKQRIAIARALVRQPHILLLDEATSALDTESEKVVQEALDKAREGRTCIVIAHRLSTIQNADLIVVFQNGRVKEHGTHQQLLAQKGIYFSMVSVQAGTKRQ
Chain of D4.4 (P21917 whole entry): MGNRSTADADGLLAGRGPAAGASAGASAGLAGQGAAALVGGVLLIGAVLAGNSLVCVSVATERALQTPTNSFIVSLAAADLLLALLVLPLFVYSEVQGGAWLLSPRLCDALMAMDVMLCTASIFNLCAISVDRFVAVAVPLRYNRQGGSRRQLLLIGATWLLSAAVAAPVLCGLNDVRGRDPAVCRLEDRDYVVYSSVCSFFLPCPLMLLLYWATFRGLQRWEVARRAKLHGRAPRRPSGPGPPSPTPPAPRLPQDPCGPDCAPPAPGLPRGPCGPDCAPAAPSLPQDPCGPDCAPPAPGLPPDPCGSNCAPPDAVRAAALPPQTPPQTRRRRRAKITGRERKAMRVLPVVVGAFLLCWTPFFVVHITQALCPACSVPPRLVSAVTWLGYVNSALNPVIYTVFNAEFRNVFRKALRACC

For `CN(CCC(=O)NCc1ccc(C#N)cc1)Cc1ccccc1` [Compound 6, 3-(Benzylmethylamino)-N-(4-cyanobenzyl)propanamide], the inhibition at 10 µM in series [1] is -5.8%; in [2], 4.7%; in series [3] it was -1.1%; in [4], 3.3%; in [5], 59.3%; in series [6], -12.5%. Moreover, in [7], the Papp A→B at 10 µM was 49.8 ×10⁻⁶ cm/s. Also, the Papp B→A at 10 µM in [7] is 60.9 ×10⁻⁶ cm/s. Also, the efflux ratio at 10 µM in series [7] was found to be 1.2. Besides, the half-life at 10 µM in series [8] is above 2880 min.
Regarding `CN(CCC(=O)NCc1cccc(Cl)c1)Cc1ccccc1` [Compound 2, 3-(Benzylmethylamino)-N-(3-chlorobenzyl)propanamide], the inhibition at 10 µM was -9% in series [1]; 4.7% in [2]; -0.3% in [3]; 5.6% in series [4]; 54.1% in [5]; 8.7% in series [6]. The “D4.4 [b] antagonist activity” value in series [9] is recorded as 64%. In series [7], the Papp A→B at 10 µM came to 39 ×10⁻⁶ cm/s. Moreover, in series [7], the Papp B→A at 10 µM stood at 67.4 ×10⁻⁶ cm/s. The efflux ratio at 10 µM in series [7] is 1.7. Further, in series [8], the half-life at 10 µM is 2100 min.
